{"source": "patent US20250042911A1", "about": "“NOVEL BENZOPYRAN DERIVATIVE AND USE THEREOF” (SPARK BIOPHARMA, INC, priority 2021, published 2025)", "key": {"melanoma cells (B316F10)": {"system": "melanoma cells (B316F10)", "experiment": "Tumor growth inhibition in C57BL/6 syngeneic mouse model implanted with melanoma cells", "assay_type": "in vivo", "conditions": "20 mg/kg orally once a day for 9 or 10 days, female C57BL/6 mice with implanted melanoma cells, tumor volume vs control group; for inhibition in vivo at 20 mg/kg: Mus musculus, po, read-out: TGI (%)", "method": "The tumor growth inhibition effect of benzopyrene derivatives was evaluated in a C57BL/6 mouse tumor model (syngeneic mouse model) in which melanoma cells (B316F10) derived from C57BL/6 mice are implanted.\nAfter the quarantine and acclimation period was over, a cell suspension prepared with 5×10^5 cells/0.1 mL PBS was filled into a disposable syringe and administered in an amount of 0.1 mL PBS/head subcutaneously to the right back of healthy test animals (female C57BL/6, 7 weeks old) for implantation. After cell line implantation, general symptoms were observed once daily during the engraftment and growth period. Animals with no abnormalities in their health and whose tumor volume reached 50 to 100 mm^3 when measured with a digital caliper were selected. Then, based on tumor volume and body weight, the groups were separated so that the average tumor volume per group was 70 to 100 mm^3. Ten (10) animals were separated per group, and 20 mg/kg of benzopyran derivatives were administered orally once a day for 9 or 10 days. Tumor volume was measured once every 2 or 3 days.\nThe measured tumor volume of the test compound administered groups was compared with that of the control group and is represented in Table 2 as the tumor growth inhibition (TGI, %)."}, "human M2 macrophages": {"system": "human M2 macrophages", "experiment": "Inhibition of human M2 macrophage activity, hCCL22 in culture supernatant by ELISA", "assay_type": "cell-based", "conditions": "for EC50: hCCL22 secretion, THP-1 derived M2-like macrophages, compound present during 72 hours of differentiation", "method": "To obtain human M2 macrophages, human monocytes (THP-1 monocyte, CD4 expression) were stabilized in a 96-well plate for 24 hours and then incubated in culture media containing 100 ng/mL phorbal 12-myristate-13-acetate (PMA; Sigma, P8139) for 24 hours to differentiate into M0 macrophages (macrophage-like phenotype). It was confirmed that differentiated M0 macrophages had reduced CD4 expression and expressed CD11b. M0 macrophages in the plate well were washed once with culture media and incubated in culture media containing 25 ng/mL hIL-4 (Peprotech, 200-04-50) and 25 ng/mL hIL-13 (Peprotech, 200-13-50) for 72 hours to differentiate into M2-like macrophages. Test compounds were diluted by concentration in M2 differentiation media and treated simultaneously during a differentiation period of 72 hours. The inhibitory effect of the test compounds on M2 macrophages was determined by measuring hCCL22 in the medium culture supernatant cultured for 72 hours using an ELISA assay (R&D system, DMD00). The results of the activity measurements are represented in Table 3 (EC50), Table 4 ([…] inhibitory activity at 5 μM) and Table 5 (hCCL22 inhibitory activity at 10 μM)."}}, "note": "Counter-ions that a name gives are not always drawn."}
{"smiles": "CC1(C)Oc2cc(N3CCCC3)ccc2C2C1=CCn1c(=O)n(-c3ccc(C(=O)O)cc3)c(=O)n12", "note": "(centres unmarked) [Example 44, 4-(7,7-dimethyl-1,3-dioxo-10-(pyrrolidin-1-yl)-5,12b-dihydro-1H,7H-chromeno[4,3-c][1,2,4]triazolo[1,2-a]pyridazin-2(3H)-yl)benzoic acid]", "values": [{"measurement": "inhibition in vivo at 20 mg/kg", "setting": "melanoma cells (B316F10)", "value": "25 to 66", "unit": "%"}, {"measurement": "EC50", "setting": "human M2 macrophages", "value": 9.5, "unit": "µM"}]}
{"smiles": "CC(=O)Oc1ccc2c(c1)OC(C)(C)C1=CCn3c(=O)n(-c4ccc(C(C)=O)cc4)c(=O)n3C12", "note": "(centres unmarked) [Example 60, 2-(4-acetylphenyl)-7,7-dimethyl-1,3-dioxo-2,3,5,12b-tetrahydro-1H,7H-chromeno[4,3-c][1,2,4]triazolo[1,2-a]pyridazin-10-yl acetate]", "values": [{"measurement": "inhibition in vivo at 20 mg/kg", "setting": "melanoma cells (B316F10)", "value": 56.5, "unit": "%"}]}
{"smiles": "CC(=O)c1ccc(-n2c(=O)n3n(c2=O)C2C(=CC3)C(C)(C)Oc3cc(OP(=O)(O)O)ccc32)cc1", "note": "(centres unmarked) [Example 69, 2-(4-acetylphenyl)-7,7-dimethyl-1,3-dioxo-2,3,5,12b-tetrahydro-1H,7H-chromeno[4,3-c][1,2,4]triazolo[1,2-a]pyridazin-10-yl dihydrogen phosphate]", "values": [{"measurement": "inhibition in vivo at 20 mg/kg", "setting": "melanoma cells (B316F10)", "value": "25 to 66", "unit": "%"}]}
{"smiles": "COCCOC(=O)Oc1ccc2c(c1)OC(C)(C)C1=CCn3c(=O)n(-c4ccc(C(C)=O)cc4)c(=O)n3C12", "note": "(centres unmarked) [Example 73, 2-(4-acetylphenyl)-7,7-dimethyl-1,3-dioxo-2,3,5,12b-tetrahydro-1H,7H-chromeno[4,3-c][1,2,4]triazolo[1,2-a]pyridazin-10-yl (2-methoxyethyl) carbonate]", "values": [{"measurement": "inhibition in vivo at 20 mg/kg", "setting": "melanoma cells (B316F10)", "value": 31, "unit": "%"}]}
{"smiles": "CC(=O)c1ccc(-n2c(=O)n3n(c2=O)C2C(=CC3)C(C)(C)Oc3cc(OC(=O)N4CCCC4)ccc32)cc1", "note": "(centres unmarked) [Example 74, 2-(4-acetylphenyl)-7,7-dimethyl-1,3-dioxo-2,3,5,12b-tetrahydro-1H,7H-chromeno[4,3-c][1,2,4]triazolo[1,2-a]pyridazin-10-yl pyrrolidine-1-carboxylate]", "values": [{"measurement": "inhibition in vivo at 20 mg/kg", "setting": "melanoma cells (B316F10)", "value": "25 to 66", "unit": "%"}]}
{"smiles": "COCCOCCOCCOCCOC(=O)Oc1ccc2c(c1)OC(C)(C)C1=CCn3c(=O)n(-c4ccc(C(C)=O)cc4)c(=O)n3C12", "note": "(centres unmarked) [Example 75, 2-(4-acetylphenyl)-7,7-dimethyl-1,3-dioxo-2,3,5,12b-tetrahydro-1H,7H-chromeno[4,3-c][1,2,4]triazolo[1,2-a]pyridazin-10-yl (2,5,8,11-tetraoxatridecan-13-yl) carbonate]", "values": [{"measurement": "inhibition in vivo at 20 mg/kg", "setting": "melanoma cells (B316F10)", "value": 25.5, "unit": "%"}]}
{"smiles": "CC(=O)c1ccc(-n2c(=O)n3n(c2=O)C2C(=CC3)C(C)(C)Oc3cc(OC(=O)[C@@H](N)CC(C)C)ccc32)cc1", "note": "(stereo partly drawn) [Example 81, 2-(4-acetylphenyl)-7,7-dimethyl-1,3-dioxo-2,3,5,12b-tetrahydro-1H,7H-chromeno[4,3-c][1,2,4]triazolo[1,2-a]pyridazin-10-yl L-leucinate 2,2,2-trifluoroacetic acid]", "values": [{"measurement": "inhibition in vivo at 20 mg/kg", "setting": "melanoma cells (B316F10)", "value": "25 to 66", "unit": "%"}]}
{"smiles": "CC(=O)c1ccc(-n2c(=O)n3n(c2=O)C2C(=CC3)C(C)(C)Oc3cc(OC(=O)N(C)CCC(=O)O)ccc32)cc1", "note": "(centres unmarked) [Example 91, 3-((((2-(4-acetylphenyl)-7,7-dimethyl-1,3-dioxo-2,3,5,12b-tetrahydro-1H,7H-chromeno[4,3-c][1,2,4]triazolo[1,2-a]pyridazin-10-yl)oxy)carbonyl)(methyl)amino)propanoic acid]", "values": [{"measurement": "inhibition in vivo at 20 mg/kg", "setting": "melanoma cells (B316F10)", "value": "25 to 66", "unit": "%"}]}
{"smiles": "CC(=O)c1ccc(-n2c(=O)n3n(c2=O)C2C(=CC3)C(C)(C)Oc3cc(OC(=O)N(C)CCC(=O)O)ccc32)cc1", "note": "(centres unmarked) [Example 92, sodium 3-((((2-(4-acetylphenyl)-7,7-dimethyl-1,3-dioxo-2,3,5,12b-tetrahydro-1H,7H-chromeno[4,3-c][1,2,4]triazolo[1,2-a]pyridazin-10-yl)oxy)carbonyl)(methyl)amino)propanoate]", "values": [{"measurement": "TGI (%)", "setting": "melanoma cells (B316F10)", "value": 25.5, "unit": "%"}]}
{"smiles": "CC(=O)c1ccc(-n2c(=O)n3n(c2=O)C2C(=CC3)C(C)(C)Oc3cc(OC(=O)N4C(C)CNCC4C)ccc32)cc1", "note": "(centres unmarked) [Example 100, 2-(4-acetylphenyl)-7,7-dimethyl-1,3-dioxo-2,3,5,12b-tetrahydro-1H,7H-chromeno[4,3-c][1,2,4]triazolo[1,2-a]pyridazin-10-yl 2,6-dimethylpiperazine-1-carboxylate hydrochloride]", "values": [{"measurement": "EC50", "setting": "human M2 macrophages", "value": 15.9, "unit": "µM"}]}
{"smiles": "CC(=O)c1ccc(-n2c(=O)n3n(c2=O)C2C(=CC3)C(C)(C)Oc3cc(OC(=O)N4C(C)CN(C(=O)[C@@H]5CCCN5)CC4C)ccc32)cc1", "note": "(some centres unmarked) [Example 101, 2-(4-acetylphenyl)-7,7-dimethyl-1,3-dioxo-2,3,5,12b-tetrahydro-1H,7H-chromeno[4,3-c][1,2,4]triazolo[1,2-a]pyridazin-10-yl 2,6-dimethyl-4-prolylpiperazine-1-carboxylate hydrochloride]", "values": [{"measurement": "EC50", "setting": "human M2 macrophages", "value": 17.9, "unit": "µM"}]}
{"smiles": "CC(=O)c1ccc(-n2c(=O)n3n(c2=O)C2C(=CC3)C(C)(C)Oc3cc(OCP(=O)(O)O)ccc32)cc1", "note": "(centres unmarked) [Example 115, disodium (((2-(4-acetylphenyl)-7,7-dimethyl-1,3-dioxo-2,3,5,12b-tetrahydro-1H,7H-chromeno[4,3-c][1,2,4]triazolo[1,2-a]pyridazin-10-yl)oxy)methyl)phosphonate]", "values": [{"measurement": "EC50", "setting": "human M2 macrophages", "value": "> 80", "unit": "µM"}]}
{"smiles": "CC(=O)c1ccc(-n2c(=O)n3n(c2=O)C2C(=CC3)C(C)(C)Oc3cc(OC(=O)N4CCNCC4(C)C)ccc32)cc1", "note": "(centres unmarked) [Example 118, 2-(4-acetylphenyl)-7,7-dimethyl-1,3-dioxo-2,3,5,12b-tetrahydro-1H,7H-chromeno[4,3-c][1,2,4]triazolo[1,2-a]pyridazin-10-yl 2,2-dimethylpiperazine-1-carboxylate hydrochloride]", "values": [{"measurement": "EC50", "setting": "human M2 macrophages", "value": 5.3, "unit": "µM"}]}
{"smiles": "CC(=O)c1ccc(-n2c(=O)n3n(c2=O)C2C(=CC3)C(C)(C)Oc3cc(OC(=O)N4CCN(C(=O)CN(C)C)CC4(C)C)ccc32)cc1", "note": "(centres unmarked) [Example 119, 2-(4-acetylphenyl)-7,7-dimethyl-1,3-dioxo-2,3,5,12b-tetrahydro-1H,7H-chromeno[4,3-c][1,2,4]triazolo[1,2-a]pyridazin-10-yl 4-(dimethylglycyl)-2,2-dimethylpiperazine-1-carboxylate hydrochloride]", "values": [{"measurement": "EC50", "setting": "human M2 macrophages", "value": 9.5, "unit": "µM"}]}
{"smiles": "CC(=O)c1ccc(-n2c(=O)n3n(c2=O)C2C(=CC3)C(C)(C)Oc3cc(N4CCC4)ccc32)cc1", "note": "(centres unmarked) [Example 141, 2-(4-acetylphenyl)-10-(azetidin-1-yl)-7,7-dimethyl-5,12b-dihydro-1H,7H-chromeno[4,3-c][1,2,4]triazolo[1,2-a]pyridazine-1,3(2H)-dione]", "values": [{"measurement": "inhibition at 10 µM", "setting": "human M2 macrophages; Macrophage, hCCL22 inhibitory activity at 10 μM, 72 hours", "value": 94.2, "unit": "%"}, {"measurement": "EC50", "setting": "human M2 macrophages", "value": 7.2, "unit": "µM"}]}
{"smiles": "CC1(C)Oc2cc(OP(=O)(O)O)ccc2C2C1=CCn1c(=O)n(-c3ccc(C(F)(F)F)cc3)c(=O)n12", "note": "(centres unmarked) [Example 142, 7,7-dimethyl-1,3-dioxo-2-(4-(trifluoromethyl)phenyl)-2,3,5,12b-tetrahydro-1H,7H-chromeno[4,3-c][1,2,4]triazolo[1,2-a]pyridazin-10-yl dihydrogen phosphate]", "values": [{"measurement": "EC50", "setting": "human M2 macrophages", "value": 6.3, "unit": "µM"}]}
{"smiles": "CC1(C)Oc2cc(OP(=O)(O)O)ccc2C2C1=CCn1c(=O)n(-c3ccc(F)cc3)c(=O)n12", "note": "(centres unmarked) [Example 143, 2-(4-fluorophenyl)-7,7-dimethyl-1,3-dioxo-2,3,5,12b-tetrahydro-1H,7H-chromeno[4,3-c][1,2,4]triazolo[1,2-a]pyridazin-10-yl dihydrogen phosphate]", "values": [{"measurement": "EC50", "setting": "human M2 macrophages", "value": 9.4, "unit": "µM"}]}
{"smiles": "CC1(C)Oc2cc(OP(=O)(O)O)ccc2C2C1=CCn1c(=O)n(-c3ccc(C(C)(C)C)cc3)c(=O)n12", "note": "(centres unmarked) [Example 144, 2-(4-(tert-butyl)phenyl)-7,7-dimethyl-1,3-dioxo-2,3,5,12b-tetrahydro-1H,7H-chromeno[4,3-c][1,2,4]triazolo[1,2-a]pyridazin-10-yl dihydrogen phosphate]", "values": [{"measurement": "EC50", "setting": "human M2 macrophages", "value": 5.4, "unit": "µM"}]}
{"smiles": "CN(C)C(=O)Oc1ccc2c(c1)OC(C)(C)C1=CCn3c(=O)n(-c4ccc(C(F)(F)F)cc4)c(=O)n3C12", "note": "(centres unmarked) [Example 145, 7,7-dimethyl-1,3-dioxo-2-(4-(trifluoromethyl)phenyl)-2,3,5,12b-tetrahydro-1H,7H-chromeno[4,3-c][1,2,4]triazolo[1,2-a]pyridazin-10-yl dimethylcarbamate]", "values": [{"measurement": "EC50", "setting": "human M2 macrophages", "value": 77.3, "unit": "µM"}]}
{"smiles": "CN(C)C(=O)Oc1ccc2c(c1)OC(C)(C)C1=CCn3c(=O)n(-c4ccc(F)cc4)c(=O)n3C12", "note": "(centres unmarked) [Example 146, 2-(4-fluorophenyl)-7,7-dimethyl-1,3-dioxo-2,3,5,12b-tetrahydro-1H,7H-chromeno[4,3-c][1,2,4]triazolo[1,2-a]pyridazin-10-yl dimethylcarbamate]", "values": [{"measurement": "EC50", "setting": "human M2 macrophages", "value": "> 80", "unit": "µM"}]}
{"smiles": "CN(C)C(=O)Oc1ccc2c(c1)OC(C)(C)C1=CCn3c(=O)n(-c4ccc(C(C)(C)C)cc4)c(=O)n3C12", "note": "(centres unmarked) [Example 147, 2-(4-(tert-butyl)phenyl)-7,7-dimethyl-1,3-dioxo-2,3,5,12b-tetrahydro-1H,7H-chromeno[4,3-c][1,2,4]triazolo[1,2-a]pyridazin-10-yl dimethylcarbamate]", "values": [{"measurement": "EC50", "setting": "human M2 macrophages", "value": "> 80", "unit": "µM"}]}
